Measurements from patent publication US20240226255A9, “COMPOSITIONS AND METHODS FOR ACTIVATING NK CELLS” (The Regents of the University of California, priority 2021, published 2024).

What was measured:
[1] = test system: vector-alone transfected HEp2 cells; assay: 51Cr release: NK cell lysis of Sulindac treated vector-alone transfected HEp2 cells; type: cell-based; conditions: Sulindac 50-200 μm for 3-4 hours, vs non-treated HEp2 cells
Experimental: . (FIG. 17A) 4×10^6 vector-alone transfected HEp2 cells were labeled with ^51Cr for 1 hour at 37° C. […] Treatment of NK cells with IL-2 was carried out for 8-12 hours before their addition to the target cells. […] After an overnight incubation the cells were washed to remove the drugs, and the tumor cells were then co-cultured in the presence of untreated and IL-2 (500 u/ml) treated NK cells. After 48 hours of incubation the supernatants were removed from the NK-HEp2 cell co-cultures and assayed for released GM-CSF.

NK cells [2] = assay: IFN-γ ELISA of mouse NK cell-monocyte co-cultures ± LPS; type: cell-based; conditions: LPS 20 ng/mL
Experimental: (§1) Afterward, NK cells were used as effector cells in a standard 4 h ^51Chromium release assay against YAC-1 cells. […] NK cells were treated as described in (FIG. 4A) and afterward the supernatant was removed from the co-cultures and the levels of IFN-γ secretion were determined using specific ELISAs. *P<0.05 was obtained for differences in secretion of IFN-γ between untreated and LPS-treated NK cells cultured with monocytes from control littermates or those from Cox-2flox/flox;LysMCre/+ mice (FIG. 4B). NK cells were prepared as described in (FIG. 4A) and used as effector cells against DCs derived from monocytes from either wild type or Cox-2flox/flox; LysMCre/+ mice in a standard 4 h ^51Chromium release assay. […] One of several representative experiments is shown in this figure.
(§2) Similar results to those seen with YAC-1 targets were also seen when control and Cox-2flox/flox;LysMCre/+ DCs were used as targets (FIG. 4C).

[3] = test system: DCs from wild type or Cox-2flox/flox;LysMCre/+ mice; assay: 4 h 51Chromium release assay of mouse NK cells ± LPS against monocyte-derived DCs; type: cell-based; conditions: IL-2-treated WT NK cells + WT or KO monocytes
Experimental: as §1, §2

NK cells [4] = assay: IFN-γ ELISA of human NK cell cultures; type: cell-based; conditions: LPS 20 ng/mL, 24-48 h
Experimental: (§3) Afterward, the cytotoxicity against OSCSCs was assessed using a standard 4 h ^51Chromium release assay. […] NK cells were prepared as described in FIG. 5A. […] One of several representative experiments is shown in this figure.
(§4) Human NK cells were purified from healthy donors and left untreated or treated with IL-2 (1000 U/mL) or the combination of IL-2 (1000 U/mL) and anti-CD16mAb (3 μg/mL) in the presence of sAJ2 (NK cell:sAJ2, 1:3), autologous monocytes (NK cell:monocytes, 1:1) or the combination of sAJ2 (NK cell:sAJ2, 1:3) and autologous monocytes (NK cell:monocytes, 1:1) for 24-48 h. Afterward, the cytotoxicity against OSCSCs cells was assessed using a standard 4 h ^51Chromium release assay. […] NK cells were prepared as described in FIG. 6A and after the treatment period, the supernatants were removed from the co-cultures and the levels of IFN-γ cytokine were measured with specific ELISA. *P<0.05 was obtained for the differences in cytotoxicity and IFN-γ secretion between human NK cells cultured in media and those treated with sAJ2, monocytes or the combination of sAJ2 and monocytes. One of several representative experiments is shown in this figure (FIG. 8B). […] After an overnight incubation, the supernatants were collected and the levels of IFN-γ, IL-15, IFN-α, and IL-12 were determined by ELISAs in a multiplexed format using Luminex technology (FIG. 8C). […]

YAC-1 cells = assay: 4 h 51Chromium release assay of mouse NK cells cultured with monocytes ± LPS against YAC-1; type: cell-based; conditions: IL-2-treated WT NK cells + monocytes from control WT littermates; LPS 20 ng/mL
Experimental: as §1, §2

OSCSCs = assay: 4 h 51Chromium release assay of human NK cells against OSCSCs; type: cell-based; conditions: LPS 20 ng/mL, 24-48 h
Experimental: as §3, §4

[5] = test system: BM cells, splenocytes, spleen-purified NK cells, oral gingiva cells; assay: IFN-γ ELISA of IL-2 cultured tissue cells from mice given ZOL or NaCl, then molar extraction; type: in vivo; conditions: for ZOL-induced decrease in IFN-γ: oral tooth extraction site
Experimental: (§5) 7-week old female WT mice, and female Rag2^−/− mice (B6(Cg)-Rag2tm1.1Cgn/J null mutation in recombination-activating gene-2 resulting in the deficiency of B and T lymphocytes) were purchased from the Jackson Laboratory, Bar Harbor, ME. The UCLA Animal Research Committee reviewed and approved all experimental protocols involving animals (ARC 1997-136). Female WT mice and Rag2^−/− mice were injected with the single injection of 500 μg/kg ZOL or 0.9% NaCl vehicle solution via tail vein.
(§6) After 1-week of the ZOL and NaCl injection maxillary first molar was extracted as described previously. During the extraction procedure, mice were anesthetized via continuous inhalation of 2-4% isoflurane mixed with oxygen and placed on a custom-made surgical table in a supine position using the fixed positioner on the maxillary incisors. Immediately prior to tooth extraction, 5.0 mg/kg carprofen was subcutaneously injected, and mice received 5.0 mg/kg carprofen injection every 24 h for 48 h. Mice were sacrificed and various tissues were studied 4-weeks after the tooth extraction.
Single cell-suspension from each tissue of WT and Rag2^−/− female mice were activated with IL-2 (10,000 U/ml) for 5 days before the supernatants/culture media were harvested after to determine the levels of IFN-γ secretion. IFN-γ ELISAs were performed and standard curve was generated as described previously. A standard curve was generated by either two or three-fold dilution of recombinant IFN-γ provided by the manufacturer to analyze and obtain the IFN-γ concentration (Biolegend, San Diego, CA).
WT and RAG2 mice were administered with either 0.9% NaCl or ZOL (500 μg/kg) via tail vein followed by maxillary left first molar extraction as described in Materials and Methods section. Week 4 after the tooth extraction, animals were sacrificed, BM cells, splenocytes, splenocytes-purified NK cells and oral gingiva cells were cultured at (1×10^6 cells/ml) each treated with IL-2 (10000 U/ml) for 5 days, after which the supernatants were harvested and the levels of IFN-γ were determined using specific ELISA. Modulation of IFN-7 by ZOL in both WT and RAG2 mice models were determined, and fold change in comparison to NaCl controls was calculated for each tissue.

[6] = Osteonecrosis of the jaw (ONJ) after ZOL injection and molar extraction; type: in vivo; conditions: Rag2−/− mice injected with ZOL
Experimental: as §5, §6

st63 cells = conditions: Rag2−/− mice
Experimental: RAG2 mice were administered with either 0.9% NaCl or ZOL (500 μg/kg) via tail vein followed by maxillary left first molar extraction as described in Materials and Methods section. […] Week 4 after the tooth extraction, animals were sacrificed, BM cells (n=9), splenocytes (n=9), and NK cells purified from splenocytes (n=5) were cultured at (1×10^6 cells/ml) each treated with IL-2 (10000 U/ml) for 5 days, after which the cells were used as effector cells against tumor targets. Cytotoxicity assays were performed using standard 4-hour ^51Cr release assay against st63 cells, and the LU 30/10^6 cells were determined using inverse number of cells required to lyse 30% of st63 cells×100 (FIG. 16B).
Single cell-suspension from each tissue and spleen-purified NK cells from WT and Rag2^−/− mice female mice were activated with IL-2 (10,000 U/ml) for 5 days and were used as effector cells on day 5. […] After that, the supernatants were harvested from each sample and released radioactivity was counted using the gamma counter. The percentage (%) specific cytotoxicity was calculated as follows:
% Cytotoxicity=Experimental cpm−spontaneous cpm/Total cpm−spontaneous cpm • Lytic Units (LU) 30/10^6 was calculated by using the inverse of the number of effector cells needed to lyse 30% of tumor target ST63 cells×100.

In the case of CC1=C(CC(=O)O)c2cc(F)ccc2/C1=C\c1ccc([S+](C)[O-])cc1 (stereo not shown) [Sulindac], the “NK cell lysis of treated HEp2 cells” value [1] is reported as “increased lysis”.

In the case of Lipopolysaccharide [LPS], the IFN-γ secretion (NK cells [2]; IL-2-treated WT NK cells + monocytes from Cox-2flox/flox;LysMCre/+ mice) is reported as “increasing IFN-γ secretion significantly”, the “amount of IFN-γ secreted by the NK cells” value (NK cells [2]; IL-2-treated WT NK cells + monocytes from control WT littermates) is reported as “increased” and the “NK cell cytotoxicity against wild type and Cox-2flox/flox;LysMCre/+ DCs” value [3] is reported as “decreased”. The IFN-γ secretion (NK cells [4]) was “increasing”, the “NK cells' ability to lyse YAC-1 cells” value (YAC-1 cells) was “complete shutdown” and the “NK cell-mediated cytotoxicity against OSCSCs” value (OSCSCs) was “loss”.

For O=P(O)(O)C(O)(Cn1ccnc1)P(=O)(O)O [ZOL, zolendronate], the “ZOL-induced increase in IFN-γ” value ([5]; BM, Rag2−/− mice) was 50-75%, the “IFN-γ secretion after ZOL injections” value ([5]; BM, Rag2−/− mice, vs NaCl) was “significantly increased” and the “ZOL-induced increase in IFN-γ” value ([5]; BM, WT mice) was 300-500%. The “Fold change in IFN-γ secretion (ZOL group/NaCl group)” value (shortened to “Fold change … (ZOL group/NaCl group)”) ([5]; Bone marrow, Rag2−/− (Rag KO) mice, ZOL 500 μg/kg) was 1.5-1.75 fold, the “Fold change … (ZOL group/NaCl group)” value ([5]; Bone marrow, WT mice, ZOL 500 μg/kg tail vein, week 4 after tooth extraction, cells + IL-2 5 days) was 4-6 fold and the “Fold change … (ZOL group/NaCl group)” value ([5]; Gingiva, Rag2−/− (Rag KO) mice, ZOL 500 μg/kg) was 0.22-0.35 fold. For the same compound, the “Fold change … (ZOL group/NaCl group)” value ([5]; Gingiva, WT mice, ZOL 500 μg/kg) was 0.3-0.5 fold, the “ZOL-induced drop in IFN-γ” value ([5]; NK cells purified from splenocytes, Rag2−/− mice) was 58-65% and the “ZOL-induced increase in IFN-γ” value ([5]; NK cells purified from splenocytes, WT mice) was 20-90%. For the same compound, the “Fold change … (ZOL group/NaCl group)” value ([5]; Spleen, Rag2−/− (Rag KO) mice, ZOL 500 μg/kg) was 0.5-0.66 fold, the “Fold change … (ZOL group/NaCl group)” value ([5]; Spleen, WT mice, ZOL 500 μg/kg) was 2-3.4 fold and the “Fold change … (ZOL group/NaCl group)” value ([5]; Spleen-purified NK cells, Rag2−/− (Rag KO) mice, ZOL 500 μg/kg) was 0.35-0.42 fold. The “Fold change … (ZOL group/NaCl group)” value ([5]; Spleen-purified NK cells, WT mice, ZOL 500 μg/kg) was 1.2-1.9 fold, the “ZOL-induced decrease in IFN-γ” value ([5]; Rag2−/− mice) was 65-78% and the “ZOL-induced decrease in IFN-γ” value ([5]; WT mice) was 50-70%. For the same compound, the “secretion of IFN-γ after ZOL intake” value ([5]; spleen, spleen-purified NK cells and oral gingiva cells, Rag2−/− mice) was “blocked”, the “ZOL-induced drop in IFN-γ” value ([5]; splenocytes, Rag2−/− mice) was 34-50% and the “ZOL-induced increase in IFN-γ” value ([5]; splenocytes, WT mice) was 100-240%. For the same compound, the ONJ [6] was “no ONJ was seen”, the “NK cell-mediated cytotoxicity after ZOL injections” value (st63 cells; BM, vs NaCl) was “significantly increased” and the “NK cell-mediated cytotoxicity with ZOL” value (st63 cells; spleen and spleen-purified NK cells) was “blocked”.
